Each compound was assayed against T1, human 15-lipoxygenase-1 (15-LOX-1) (Homo sapiens, UniProt P16050) (assay: UV absorption assay).
T1 sequence (P16050 2-662): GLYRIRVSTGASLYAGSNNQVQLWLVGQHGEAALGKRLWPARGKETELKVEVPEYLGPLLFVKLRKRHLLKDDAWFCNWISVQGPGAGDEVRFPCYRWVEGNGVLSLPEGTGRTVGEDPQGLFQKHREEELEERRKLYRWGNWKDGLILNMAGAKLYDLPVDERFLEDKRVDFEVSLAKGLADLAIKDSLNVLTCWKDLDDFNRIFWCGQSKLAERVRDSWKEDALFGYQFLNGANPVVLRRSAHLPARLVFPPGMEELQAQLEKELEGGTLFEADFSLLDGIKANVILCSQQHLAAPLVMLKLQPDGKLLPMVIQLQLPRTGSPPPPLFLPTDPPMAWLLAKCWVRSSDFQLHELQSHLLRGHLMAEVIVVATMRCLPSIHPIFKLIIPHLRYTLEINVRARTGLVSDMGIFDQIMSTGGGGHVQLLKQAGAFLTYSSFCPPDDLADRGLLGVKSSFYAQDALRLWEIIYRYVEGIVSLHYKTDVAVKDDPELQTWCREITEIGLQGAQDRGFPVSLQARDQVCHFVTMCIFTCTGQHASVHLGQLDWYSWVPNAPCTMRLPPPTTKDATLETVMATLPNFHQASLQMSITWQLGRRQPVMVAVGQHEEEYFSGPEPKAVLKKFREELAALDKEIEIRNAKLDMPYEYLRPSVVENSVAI
Assay type: biochemical

IC50	SMILES
16 ± 6 µM	CC(C)CCCC(C)CC(=O)NN=Cc1cccnc1 (racemic) [compound 17, 3,7‐Dimethyl‐N′‐[(pyridin‐3‐yl)methylidene]octanehydrazide]
59 ± 7 µM	CC(C)CCCC(C)CC(=O)NN=Cc1cccs1 (racemic) [compound 2, 3,7‐Dimethyl‐N′‐(thiophen‐2‐ylmethylene)octanehydrazide]
42 ± 4 µM	COc1cc(C=NNC(=O)CC(C)CCCC(C)C)ccc1O (racemic) [compound 4, N ′‐[(4‐Hydroxy‐3‐methoxyphenyl)methylidene]‐3,7‐dimethyloctanehydrazide]
